Patent US8080582B2, “Derivatives of 8-epiblechnic acid and their effects on down-regulation of endothelin (ETA) receptor mRNA” (ScinoPharm Taiwan Ltd., priority 2008, dated 2011)
“Also recorded” adds a separate entry of the source.

Legend:
Type in all cases: cell-based
[1] = test system: Vascular smooth muscle cells (cell line A10); assay: MTT cell viability / observation of normal vascular smooth muscle cells (A10); settings: 48 hrs; for Precipitation in the treated sample: dissolved in DMSO, added to A10 cells, 0.2 mM
Protocol: (§1) The cells (1×10^5 cells/well in 24-well plates) were cultured for 24 hrs. Different concentrations of Sal-B and its analogs (0, 50, 100, 150, 200, 250 μg/ml) were added to treat the cells. After treating for 48 hrs, 100 μl MTT solution was added to each well, and the plate was placed in an incubator for 1-4 hrs. After adding 400 μl DMSO to treat the cells for 30 min., 200 μl samples were collected and placed in a 96-well plate to conduct the absorption measurement at 550 nm.
Cell viability testing (MTT testing) was employed to determine the cytotoxicity of Sal-B and EBA to vascular smooth muscle cells. Vascular smooth muscle cells (cell line A10) were treated with Sal-B and EBA at concentrations of 0, 0.1, 0.2, 0.3, 0.4, and 0.5 mM. After treating for 48 hrs, MTT was added and allowed to react for 3 hrs at 37° C. Then, DMSO was added and allowed to react for 30 min., after that, the OD570 absorption values were measured. Cell viability was still 90% when the drug concentration reached 0.2 mM.
Sal-B's analogs, compounds A to F, were dissolved in DMSO, and then added to A10 cells to observe the results.

[2] = test system: nasopharyngeal cancer cells (Hone-1); assay: MTT cell viability, nasopharyngeal cancer cells; settings: Hone-1 cells, summary statement
Protocol: as §1
(§2) Cancer cells were treated with Sal-B and EBA at concentrations of 0, 0.1, 0.2, 0.3, 0.4, 0.5 mM. After treating for 48 hrs, MTT was added, and then allowed to react for 3 hrs at 37° C. After that, DMSO was added and allowed to react for 30 min., the OD570 absorption values were measured. Cell viability was above 80% when nasopharyngeal cancer cells (Hone-1) were treated with […] Sal-B and EBA. […] But the cell viability remained above 70% for treating with 0.1 mM and 0.2 mM EBA. Similar results were obtained when prostate cancer cells (PC-3) were treated with the drugs: Cell viability was above 80% for treating PC-3 cells with 0.2 mM Sal-B or EBA.

[3] = test system: prostate cancer cells (PC-3); assay: MTT cell viability, prostate cancer cells; settings: for Viability of PC-3 cells as the concentration is increased: PC-3, MTT, increasing concentration, FIG. 1
Protocol: as §1, §2
MTT testing was employed to observe the viability of cancer cells after treating with Sal-B and the six synthetic analogs.

[4] = test system: normal mammary gland cell line (A1N4); assay: Cytotoxicity test on normal mammary gland cells; settings: A1N4 normal mammary gland cells, FIG. 2
Protocol: as §1

ETAR mRNA expression = assay: Real-time quantitative RT-PCR of ETAR mRNA in smooth muscle cells (A10); settings: A10 smooth muscle cells, 0.2 mM, 48 hrs, vs DMSO control, FIG. 4, read-out: ETAR mRNA remaining after the treatment
Protocol: Extraction of cellular RNA: Subculturing smooth muscle cells to 100-mm culture dishes. After the cells had filled the culture dishes, Sal-B and its analogs were added to treat the cells for 48 hrs. After that, 1×PBS solutions were added to wash the cells three times. After adding 1 ml TRIzol, the cells were scraped off and placed in 1.5 ml micro-centrifuge tubes. Following the addition of 0.2 ml chloroform to each tube, the tubes were shaken, left at room temperature for 3 min., and run in a centrifuge at 12,000 rpm for 15 min. The supernatant liquid was removed and the cells placed in new micro-centrifuge tubes. After adding an amount of isopropyl alcohol equivalent to one-half of the volume of the supernatant liquid, and mixing until homogeneous, the samples were allowed to stand at room temperature for 10 min. The supernatant liquid was removed after centrifugation at 12,000 rpm for 10 min. 1 ml 70% alcohol was added to wash out salts, followed by centrifugation for 5 min. and removal of supernatant liquid. The samples were dissolved in 50 μl DEPC-H2O after drying.
(1) cDNA synthesis: 1 μl Random hexamer primer (20 μM) and 1 μl dNTP(10 mm) were added to 3 μg RNA, which was allowed to react at 65° C. for 5 min., and then placed on ice promptly. After the addition of 2 μl 10× reaction buffer, 0.5 μl RNaseOUT (40 unit/μl) and 1 μl SuperScript III RT (200 unit/μl), the solution was mixed until homogeneous, and allowed to react at 50° C. for 50 min. After that, the mixture was heated to 85° C. for 5 min. to terminate the enzymatic reaction. The samples were preserved at −70° C. for later use.
(2) PCR quantitative analysis: After adding 7.5 μl PCR primer mix (400 nm each) and 15 μl SYBR Green dye reagent to the 7.5 μl cDNA template, the solution was placed in Bio-Rad's iCycler for PCR reaction. The resulting data was inputted into Gene Expression Analysis for iCycler iQ Real-Time PCR Detection System for quantitative analysis of gene expression.
Furthermore, after treating vascular smooth muscle cells with 100 μg/ml of either Sal-B or EBA for 48 hrs, the identical concentrations of cellular whole RNA were sampled for the synthesis of cDNA by using reverse transcriptase. The PCR method was employed to determine the amounts of endothelin receptor mRNA expression. […] For the analysis of ETAR mRNA expression by using the real-time PCR method, vascular smooth muscle cells at full confluence 100-mm culture dishes were treated with 100 μg/ml of either Sal-B or EBA for 48 hrs. The identical concentrations of cellular whole RNA were sampled for the synthesis of cDNA by using reverse transcriptase. The real-time PCR method was used to compare the amounts of ETAR mRNA expression.
The different analogs, compounds A to F, had different effects on ETAR mRNA expression. The control group represented treating smooth muscle cells (A10) with DMSO, and the positive control group represented treating the cells with Sal-B. The smooth muscle cells were treated with 0.2 mM Sal-B and compounds A to F for 48 hrs. The identical concentrations of cellular RNA were sampled for the synthesis of cDNA by using reverse transcriptase. The real-time PCR method was employed to determine the amounts of ETAR mRNA expression. Compared with the control group, compound B had the least effect on down-regulating ETAR mRNA expression, as approximately 50% of the ETAR mRNA remained after the treatment. […]

PC-3 cancer cells = assay: Flow cytometry cell cycle analysis (sub-G1, apoptosis) of PC-3 cells; settings: PC-3, 0.01 mM, 48 hrs, PI flow cytometry; control around 1.18%
Protocol: After suspending cells, the precooled 70% ethanol was used for fixing the cells. After centrifuging the mixture for 10 min. at 3,000 rpm, supernatant liquid was removed. Propidium iodide (PI) buffer (0.1% Triton X-100, 0.2 μg/ml RNase A, 40 μg/ml PI) was added, and then the solution was kept still at 37° C. for 30 min. After that, the cell cycle analysis was conducted by flow cytometry.
Flow cytometry was used to determine whether Sal-B and its analogs induced apoptosis in cancer cells. After treating PC-3 cancer cells with 0.4 mM Sal-B and EBA, and 0.01 mM compounds B and A for 48 hrs, the cells were collected and allowed to react with PI buffer for 30 min. Flow cytometry was then employed to measure the cell cycle. Approximately 5.16% of PC-3 cancer cells were at sub-G1 phase after treating with Sal-B, roughly 5.27% were at sub-G1 phase after treating with compound B, and roughly 8.54% were at sub-G1 phase after treating with compound A. However, for the control, only around 1.18% of the cells were at sub-G1 phase. Therefore, Sal-B and its analogs (compounds B and A) thus caused a significant increase in the percentage of cells at sub-G1 phase.

SMILES | Cytotoxicity / cell death in A10 cells ([1]; A10 cells, 0.2 mM in DMSO) | Inhibition of growth of Hone-1 cells [2] | Viability of PC-3 cells as the concentration is increased [3] | Toxicity to PC-3 cells relative to Sal-B ([3]; PC-3 cells, compared with Sal-B) | Cytotoxicity to normal cells [4] | mrna remaining at 200 µM (ETAR mRNA expression) | PC-3 cancer cells at sub-G1 phase (PC-3 cancer cells) | Precipitation in the treated sample [1]
COC(=O)C(Cc1ccc(OC)c(OC)c1)NC(=O)/C=C/c1ccc(OC)c2c1C(C(=O)NC(Cc1ccc(OC)c(OC)c1)C(=O)OC)C(c1ccc(OC)c(OC)c1)O2 (stereo not drawn) [Compound A, 2-(3,4-dimethoxyphenyl)-7-methoxy-4-{(E)-2-[1-(methoxycarbonyl)-2-(3,4-dimethoxyphenyl)-ethylcarbamoyl]-vinyl}-2,3-dihydro-benzofuran-3-carboxylic acid-1-(methoxycarbonyl)-[2-(3,4-dimethoxyphenyl)-ethyl]-amide] | high level of cell death; also recorded: relatively high cytotoxicity | significantly inhibit the growth | led to the similar results | ten times more toxic to PC-3 cells than Sal-B | low toxicity to normal cells | < 20% | roughly 8.54% | 
COC(=O)C(Cc1ccccc1)NC(=O)/C=C/c1ccc(OC)c2c1C(C(=O)NC(Cc1ccc(OC)c(OC)c1)C(=O)OC)C(c1ccc(OC)c(OC)c1)O2 (stereo not drawn) [Compound B, 2-(3,4-dimethoxyphenyl)-7-methoxy-4-{(E)-2-[1-(methoxycarbonyl)-2-phenyl-ethylcarbamoyl]-vinyl}-2,3-dihydro-benzofuran-3-carboxylic acid-1(methoxycarbonyl)-[2-(3,4-dimethoxyphenyl)-ethyl]-amide] |  | significantly inhibit the growth | led to the similar results |  | relatively toxic to normal cells | ~50% | roughly 5.27% | significant precipitation
COC(=O)C(Cc1ccc(OC)c(OC)c1)NC(=O)/C=C/c1cc(OC)c2c(c1)C(C(=O)NC(Cc1ccc(OC)c(OC)c1)C(=O)OC)C(c1ccc(OC)c(OC)c1)O2 (stereo not drawn) [Compound C, 2-(3,4-dimethoxyphenyl)-7-methoxy-5-{(E)-2-[1-(methoxycarbonyl)-2-(3,4-dimethoxyphenyl)-ethylcarbamoyl]-vinyl}-2,3-dihydro-benzofuran-3-carboxylic acid-1-(methoxycarbonyl)-[2-(3,4-dimethoxyphenyl)-ethyl]-amide] |  |  |  |  |  | < 20% |  | 
COC(=O)C1Cc2cc(OC)c(OC)cc2CN1C(=O)/C=C/c1cc(OC)c2c(c1)C(C(=O)N1Cc3cc(OC)c(OC)cc3CC1C(=O)OC)C(c1ccc(OC)c(OC)c1)O2 (stereo not drawn) [Compound E] |  |  |  |  |  |  |  | significant precipitation
